Laboratory results reported in EPA's ToxValDB 9.5.
Converted amounts (≈) assume the structure as drawn. “And” between values parts separate entries of the source, which are not always exact repeats. Identical values can stand only once. Each block holds one compound with its values, some of them ahead of it.

Experiments:
Ovis sp. = settings: subchronic; oral; diet; F; no effects
Anas platyrhynchos = settings: short-term; oral; feed; mortality
Oryctolagus sp. = settings: for NOAEL: reproduction developmental; for LEL: no effects
Pontoscolex corethrurus = settings: for LC50: acute, mortality
Daphnia magna = settings: acute; mortality
Bovidae = settings: oral; for LEL: no effects
Gallus gallus = settings: for LEL: subchronic
Sus scrofa = settings: Not specified; for LEL: oral
Anabaena flosaquae = settings: acute; duration: 72 hours; biomass
Bibionidae = settings: chronic/long-term; duration: 28 days; seedling emergence
Capra sp. = settings: subchronic; no effects
Numida meleagris = settings: subchronic; duration: 85 days; no effects
Plant = settings: not reported; other
Canidae = settings: chronic; duration: 2 years; oral; Dog Other; ophthalmoscopic examination
Carassius carassius = settings: not reported; oral; feed; histopathology: nonneoplastic
Equus caballus = settings: not reported; neurology
Pelteobagrus fulvidraco = settings: subchronic; duration: 10 weeks; oral; feed; histopathology: nonneoplastic
Felidae = settings: short-term; duration: 10 days; oral; diet; Cat; no effects
Oncorhynchus mykiss = settings: acute; duration: 3 days; oral; capsule; no effects
[1] = subchronic, duration: 57 days, diet

LEL (Ovis sp.): 0.3 mg/kg-day
Structure (SMILES): Clc1ccc(C(c2ccccc2Cl)C(Cl)Cl)cc1 (stereo not given) [1-(2-Chlorophenyl)-1-(4-chlorophenyl)-2,2-dichloroethane]

Structure (SMILES): c1nc[nH]n1 [1H-1,2,4-Triazole]
LC50 (Anas platyrhynchos): > 1350 mg/kg-day
LC50 (Colinus virginianus; acute, oral, diet, mortality): > 1410 mg/kg-day
NOAEL (Oryctolagus sp.; body weight): 30 mg/kg-day
NOAEL (Rattus norvegicus; chronic, duration: 12 months, body weight): 6.9 mg/kg-day
NOAEL (Rattus norvegicus; reproduction developmental): 17 mg/kg-day (2×) and 30 mg/kg-day (2×)

Structure (SMILES): C/C=C(\C)C(=O)O [2-Butenoic acid, 2-methyl-, (2E)-]
LC50 (Pontoscolex corethrurus): 2010 mg/kg

Structure (SMILES): CC1=C(/C=C/C(C)=C/C=C/C(C)=C/C=C/C=C(C)/C=C/C=C(C)/C=C/C2=C(C)C(=O)[C@@H](O)CC2(C)C)C(C)(C)C[C@H](O)C1=O [3,3'-Dihydroxy-beta-carotene-4,4'-dione]
NOAEL (Mus musculus; chronic, duration: 80 weeks, oral, body weight): 14 mg/kg-day

Structure (SMILES): CC=Cc1ccc(OC)c(OC)c1 [4-Prop-1-enylveratrole]
NOAEL (repeat dose other): 6 mg/kg-day
NOAEL (Rattus norvegicus; short-term, duration: 28 days, oral, organ weight): 100 mg/kg-day

Structure (SMILES): CC/C=C\CCOC(C)OCC (stereo not drawn) [Acetaldehyde ethyl cis-3-hexenyl acetal]
LC50 (Daphnia magna): 12 µg/mL (≈ 69.7 µM)
LC50 (Pontoscolex corethrurus): 238 mg/kg

Structure (SMILES): CC(C)(c1ccc(O)cc1)c1ccc(O)cc1 [Bisphenol A]
NOAEL (Mus musculus; reproduction developmental, M/F, CD1, organ weight): 5 mg/kg-day

Structure (SMILES): O=c1c(CO)c/c(=N/Nc2ccc(S(=O)(=O)[O-])c3ccccc23)c(=O)/c1=N/Nc1ccc(S(=O)(=O)[O-])c2ccccc12.[Na+].[Na+] [Chocolate Brown HT]
NOAEL (Mus musculus; chronic, duration: 80 weeks, oral, diet, M/F, histopathology: nonneoplastic): 143 mg/kg-day

LEL (Bovidae; [1]): 45 mg/kg-day
LEL (Gallus gallus; duration: 8 weeks, oral, diet, clinical chemistry): 75 mg/kg-day
LEL (Gallus gallus; duration: 35 days, oral, diet, M, other): 500 mg/kg-day
Structure (SMILES): CSCCC(O)C(=O)[O-].CSCCC(O)C(=O)[O-].[Cu+2] (stereo not given) [Copper, bis[2-(hydroxy-?O)-4-(methylthio)butanoato-?O]-]
LEL (Sus scrofa; subchronic, duration: 42 days, diet, body weight): 340 mg/kg-day

LEL (Bovidae; acute, duration: 3 days): ≤ 5 mg/kg-day
LEL (Capra sp.): ≤ 80 mg/kg
LEL (Gallus gallus; duration: 37 days, no effects): 25 mg/kg-day
LEL (Numida meleagris): ≤ 25 mg/kg
LEL (Oryctolagus sp.; repeat dose other, F): 6 mg/kg-day
LEL (Oryctolagus sp.; subchronic, duration: 35 days, oral, diet, M/F, New Zealand): 6 mg/kg-day
LEL (Sus scrofa; acute, duration: 3 days, no effects): 10 mg/kg-day
Structure (SMILES): N#CC(c1ccc(Cl)cc1)c1c(Cl)cc(-n2ncc(=O)[nH]c2=O)cc1Cl (stereo not given) [Diclazuril]
NOEC (repeat dose other, other): > 1 mg/kg-day
NOEC (Anabaena flosaquae): > 10.3 µg/L
NOEC (Bibionidae): 13.3 mg/kg
NOAEL (Mus musculus; chronic, duration: 2 years, M, histopathology: nonneoplastic): 2.9 mg/kg-day
NOEC (Plant): 50.3 mg/kg
NOEC (Pontoscolex corethrurus; chronic/long-term, reproduction): 50 mg/kg

Structure (SMILES): C/C=C/C(=O)Oc1ccccc1[N+](=O)[O-].CCCCCCCC.O=NO [Dinocap]
LD50 (Anas platyrhynchos): 367 mg/kg-day
NOAEL (Canidae): 0.4 mg/kg-day
LD50 (Colinus virginianus; acute, oral, mortality): > 2150 mg/kg-day
NOEL (Colinus virginianus; reproduction developmental, reproduction): 27.5 mg/kg-day
NOAEL (Oryctolagus sp.; oral): 3 mg/kg-day

Structure (SMILES): CC(=O)Sc1cc(C)oc1C [Ethanethioic acid, S-(2,5-dimethyl-3-furanyl) ester]
NOAEL (subchronic, duration: 90 days): 0.73 mg/kg-day
NOAEL (Rattus norvegicus; subchronic, duration: 90 days): 0.73 mg/kg-day

Structure (SMILES): CCCC[C@@H](C)[C@@H](OC(=O)C[C@@H](CC(=O)O)C(=O)O)[C@H](C[C@@H](C)C[C@H](O)CCCC[C@@H](O)C[C@H](O)[C@H](C)N)OC(=O)C[C@@H](CC(=O)O)C(=O)O [Fumonisin B1]
LOAEL (Bovidae; chronic, duration: 253 days, diet, M, histopathology: nonneoplastic): 2.4 mg/kg-day
LOAEL (Carassius carassius): 10 mg/kg
LOAEL (Equus caballus): 0.2 mg/kg-day
LOAEL (Gallus gallus; short-term, duration: 21 days, oral, diet, clinical chemistry): 2 mg/kg-day
NOAEL (Pelteobagrus fulvidraco): 20 mg/kg
NOAEL (Rattus norvegicus; subchronic): 0.2 mg/kg-day
LOAEL (Sus scrofa; subchronic, clinical chemistry): 0.2 mg/kg-day

Structure (SMILES): OO [Hydrogen peroxide]
NOAEL (Mus musculus; subchronic, duration: 90 days, oral, drinking water, M/F, food consumption): 100 mg/kg-day

Structure (SMILES): C=CCOC(Cn1ccnc1)c1ccc(Cl)cc1Cl (stereo not given) [Imazalil]
NOAEL (Oryctolagus sp.; food consumption): 10 mg/kg-day
NOAEL (Oryctolagus sp.; histopathology: nonneoplastic): 5 mg/kg-day

LEL (Bovidae; [1]): 450 mg/kg-day
LEL (Gallus gallus; duration: 8 weeks, oral, diet, no effects): 450 mg/kg-day
LEL (Sus scrofa; subchronic, duration: 42 days, diet, clinical chemistry): 150 mg/kg-day
Structure (SMILES): CSCCC(O)C(=O)[O-].CSCCC(O)C(=O)[O-].[Mn+2] (stereo not given) [Manganese, bis[2-(hydroxy-?O)-4-(methylthio)butanoato-?O]-]

Structure (SMILES): Nc1nc(N)nc(N)n1 [Melamine]
LEL (Felidae): 181 mg/kg-day
LEL (Oncorhynchus mykiss): 456 mg/kg-day
NOAEL (Rattus norvegicus; subchronic, duration: 13 weeks, oral): 63 mg/kg-day
LEL (Sus scrofa; acute, duration: 3 days, diet, no effects): 400 mg/kg-day
